Assay results as given in PubChem BioAssay (NCI).
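Five compound concentrations were applied to cells in 96-well plates for 48 hours; endpoints were derived by simple linear interpolation of the resulting dose-response curve. The concentration for full growth arrest is given as TGI.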

Columns and labels:
Test in all cases: NCI anticancer screen, dose series, 48 h
[1] = test system: SK-OV-3 ovarian
[2] = test system: IGROV1 ovarian
[3] = test system: OVCAR-3 ovarian
[4] = test system: UO-31 renal
[5] = test system: U251 CNS
[6] = test system: SF-295 CNS
[7] = test system: DMS 114 small cell lung
[8] = test system: SK-MEL-2 melanoma
[9] = test system: 786-0 renal
[10] = test system: M14 melanoma
[11] = test system: M19-MEL melanoma
[12] = test system: HCT-116 colon
[13] = test system: A498 renal
[14] = test system: HCC-2998 colon
[15] = test system: EKVX NSCLC
[16] = test system: MOLT-4 leukemia
[17] = test system: DMS 273 small cell lung
[18] = test system: SN12C renal
[19] = test system: RXF-631 renal
[20] = test system: KM20L2 colon
[21] = test system: OVCAR-4 ovarian
[22] = test system: RXF 393 renal
[23] = test system: HT29 colon
[24] = test system: LOX IMVI melanoma
[25] = test system: CCRF-CEM leukemia
[26] = test system: HL-60(TB) leukemia
[27] = test system: NCI-H522 lung
[28] = test system: CAKI-1 renal
[29] = test system: SNB-78 CNS
[30] = test system: SNB-75 CNS
[31] = test system: KM12 colon
[32] = test system: LXFL 529 NSCLC
[33] = test system: MALME-3M melanoma
[34] = test system: HOP-92 NSCLC
[35] = test system: NCI-H23 lung
[36] = test system: SK-MEL-28 melanoma
[37] = test system: DLD-1 colon
[38] = test system: ACHN renal
[39] = test system: SR leukemia
[40] = test system: K-562 leukemia
[41] = test system: A549 NSCLC
[42] = test system: SF-268 CNS
[43] = test system: NCI-H460 lung
[44] = test system: SK-MEL-5 melanoma
[45] = test system: RPMI-8226 leukemia
[46] = test system: NCI-H226 lung
[47] = test system: TK-10 renal
[48] = test system: COLO 205 colon
[49] = test system: HOP-62 NSCLC
[50] = test system: OVCAR-5 ovarian
[51] = test system: OVCAR-8 ovarian
[52] = test system: HCT-15 colon
[53] = test system: UACC-62 melanoma
[54] = test system: SF-539 CNS
[55] = test system: UACC-257 melanoma
[56] = test system: HOP-18 NSCLC
[57] = test system: SNB-19 CNS
[58] = test system: XF 498 CNS
[59] = test system: SW-620 colon

CC(=O)NC1C(OCc2ccccc2)OC(COC(=O)CCCCCCCCCCNC(=O)CCNc2ccc([N+](=O)[O-])c3[nH]c4ccc(O)cc4c(=O)c23)C(O)C1OC(C)C(=O)N[C@H](C(=O)N[C@H](CCC(=O)O)C(N)=O)C(C)C (stereo partly drawn)
TGI [1]: > 100 µM
TGI [2]: > 100 µM
TGI [3]: > 100 µM
TGI [4]: > 100 µM
TGI [5]: > 100 µM
TGI [6]: > 100 µM
TGI [7]: > 100 µM
TGI [8]: > 100 µM
TGI [9]: > 100 µM
TGI [10]: > 100 µM
TGI [11]: > 100 µM
TGI [12]: > 100 µM
TGI [13]: > 100 µM
TGI [14]: > 100 µM
TGI [15]: > 100 µM
TGI [16]: > 100 µM
TGI [17]: > 100 µM
TGI [18]: > 100 µM
TGI [19]: > 100 µM
TGI [20]: > 100 µM
TGI [21]: > 100 µM
TGI [22]: > 100 µM
TGI [23]: > 100 µM
TGI [24]: 89.2 µM
TGI [25]: 82.5 µM
TGI [26]: > 100 µM
TGI [27]: 40.4 µM
TGI [28]: > 100 µM
TGI [29]: > 100 µM
TGI [30]: 64.8 µM
TGI [31]: > 100 µM
TGI [32]: > 100 µM
TGI [33]: > 100 µM
TGI [34]: 88.4 µM
TGI [35]: > 100 µM
TGI [36]: > 100 µM
TGI [37]: > 100 µM
TGI [38]: > 100 µM
TGI [39]: 45.4 µM
TGI [40]: > 100 µM
TGI [41]: > 100 µM
TGI [42]: > 100 µM
TGI [43]: > 100 µM
TGI [44]: > 100 µM
TGI [45]: 46.6 µM
TGI [46]: > 100 µM
TGI [47]: > 100 µM
TGI [48]: > 100 µM
TGI [49]: > 100 µM
TGI [50]: > 100 µM
TGI [51]: > 100 µM
TGI [52]: > 100 µM
TGI [53]: > 100 µM
TGI [54]: > 100 µM
TGI [55]: > 100 µM
TGI [56]: > 100 µM
TGI [57]: > 100 µM

CC(=O)Oc1cc(OC(C)=O)c(OC(C)=O)c2c1CC1C(=O)C3(CCc4ccccc43)C(=O)C1C2 (stereo not drawn)
TGI [1]: 58.8 µM
TGI [2]: 38.6 µM
TGI [3]: 16.6 µM
TGI [4]: 36.6 µM
TGI [5]: 29.2 µM
TGI [6]: 17.3 µM
TGI [7]: 29.4 µM
TGI [9]: 26.4 µM
TGI [58]: 27.9 µM
TGI [10]: > 100 µM
TGI [11]: 30.1 µM
TGI [14]: 25.2 µM
TGI [15]: 37.6 µM
TGI [17]: 34.9 µM
TGI [18]: 31 µM
TGI [20]: 48.3 µM
TGI [21]: 24.1 µM
TGI [22]: 28.6 µM
TGI [23]: 40.9 µM
TGI [24]: 26.2 µM
TGI [25]: 75.9 µM
TGI [26]: 22.4 µM
TGI [28]: 38.3 µM
TGI [29]: 58.2 µM
TGI [30]: 16.7 µM
TGI [32]: 28 µM
TGI [33]: 20.1 µM
TGI [34]: > 100 µM
TGI [35]: 40.2 µM
TGI [36]: 36.5 µM
TGI [37]: 35.2 µM
TGI [38]: 26.2 µM
TGI [40]: 28.1 µM
TGI [41]: 44.6 µM
TGI [43]: 28.3 µM
TGI [59]: 42.7 µM
TGI [45]: 13.1 µM
TGI [47]: 31.7 µM
TGI [48]: 37.9 µM
TGI [49]: 50.8 µM
TGI [51]: 36.7 µM
TGI [52]: 39.5 µM
TGI [53]: 31.3 µM
TGI [56]: 43.6 µM

CSc1nnc2n1-c1ccccc1SCC2
TGI [1]: > 100 µM
TGI [2]: > 100 µM
TGI [3]: > 100 µM
TGI [4]: > 100 µM
TGI [5]: > 100 µM
TGI [6]: > 100 µM
TGI [7]: > 100 µM
TGI [8]: > 100 µM
TGI [9]: > 100 µM
TGI [58]: > 100 µM
TGI [10]: > 100 µM
TGI [11]: > 100 µM
TGI [12]: > 100 µM
TGI [13]: > 100 µM
TGI [14]: > 100 µM
TGI [15]: > 100 µM
TGI [16]: > 100 µM
TGI [17]: > 100 µM
TGI [18]: > 100 µM
TGI [20]: > 100 µM
TGI [21]: > 100 µM
TGI [22]: > 100 µM
TGI [23]: > 100 µM
TGI [24]: > 100 µM
TGI [25]: > 100 µM
TGI [26]: > 100 µM
TGI [27]: > 100 µM
TGI [29]: > 100 µM
TGI [30]: > 100 µM
TGI [31]: > 100 µM
TGI [32]: > 100 µM
TGI [33]: > 100 µM
TGI [34]: > 100 µM
TGI [35]: > 100 µM
TGI [36]: > 100 µM
TGI [37]: > 100 µM
TGI [38]: > 100 µM
TGI [39]: > 100 µM
TGI [40]: > 100 µM
TGI [41]: > 100 µM
TGI [42]: > 100 µM
TGI [43]: > 100 µM
TGI [59]: > 100 µM
TGI [45]: > 100 µM
TGI [46]: > 100 µM
TGI [47]: > 100 µM
TGI [48]: > 100 µM
TGI [49]: > 100 µM
TGI [51]: > 100 µM
TGI [52]: > 100 µM
TGI [53]: > 100 µM
TGI [54]: > 100 µM
TGI [55]: > 100 µM
TGI [56]: > 100 µM
TGI [57]: > 100 µM

CCOC(=O)/C(C#N)=C/c1[nH]c(C)c(C)c1C
TGI [1]: > 100 µM
TGI [2]: > 100 µM
TGI [3]: > 100 µM
TGI [4]: > 100 µM
TGI [5]: > 100 µM
TGI [6]: > 100 µM
TGI [7]: > 100 µM
TGI [8]: > 100 µM
TGI [9]: > 100 µM
TGI [58]: > 100 µM
TGI [10]: > 100 µM
TGI [11]: > 100 µM
TGI [12]: > 100 µM
TGI [13]: > 100 µM
TGI [14]: > 100 µM
TGI [15]: > 100 µM
TGI [16]: > 100 µM
TGI [17]: > 100 µM
TGI [18]: > 100 µM
TGI [20]: > 100 µM
TGI [21]: > 100 µM
TGI [22]: > 100 µM
TGI [23]: > 100 µM
TGI [24]: > 100 µM
TGI [25]: > 100 µM
TGI [26]: > 100 µM
TGI [27]: > 100 µM
TGI [28]: > 100 µM
TGI [29]: > 100 µM
TGI [30]: > 100 µM
TGI [31]: > 100 µM
TGI [32]: > 100 µM
TGI [33]: > 100 µM
TGI [34]: > 100 µM
TGI [35]: > 100 µM
TGI [37]: > 100 µM
TGI [40]: > 100 µM
TGI [41]: > 100 µM
TGI [42]: > 100 µM
TGI [43]: > 100 µM
TGI [44]: > 100 µM
TGI [59]: > 100 µM
TGI [45]: > 100 µM
TGI [46]: > 100 µM
TGI [47]: > 100 µM
TGI [48]: > 100 µM
TGI [49]: > 100 µM
TGI [50]: > 100 µM
TGI [51]: > 100 µM
TGI [52]: > 100 µM
TGI [53]: > 100 µM
TGI [54]: > 100 µM
TGI [55]: > 100 µM
TGI [56]: > 100 µM
TGI [57]: > 100 µM

CC1(C)OC(=O)C(c2ccsc2)C(=O)O1
TGI [1]: > 100 µM
TGI [3]: > 100 µM
TGI [4]: > 100 µM
TGI [5]: > 100 µM
TGI [6]: > 100 µM
TGI [7]: > 100 µM
TGI [8]: > 100 µM
TGI [9]: > 100 µM
TGI [58]: > 100 µM
TGI [10]: > 100 µM
TGI [11]: > 100 µM
TGI [12]: > 100 µM
TGI [14]: > 100 µM
TGI [15]: > 100 µM
TGI [16]: > 100 µM
TGI [17]: > 100 µM
TGI [18]: > 100 µM
TGI [19]: > 100 µM
TGI [20]: > 100 µM
TGI [21]: > 100 µM
TGI [22]: > 100 µM
TGI [23]: > 100 µM
TGI [24]: > 100 µM
TGI [25]: > 100 µM
TGI [26]: > 100 µM
TGI [27]: > 100 µM
TGI [28]: > 100 µM
TGI [29]: > 100 µM
TGI [30]: > 100 µM
TGI [31]: > 100 µM
TGI [32]: > 100 µM
TGI [33]: > 100 µM
TGI [34]: > 100 µM
TGI [35]: > 100 µM
TGI [36]: > 100 µM
TGI [37]: > 100 µM
TGI [38]: > 100 µM
TGI [39]: > 100 µM
TGI [40]: > 100 µM
TGI [41]: > 100 µM
TGI [42]: > 100 µM
TGI [43]: > 100 µM
TGI [44]: > 100 µM
TGI [59]: > 100 µM
TGI [45]: > 100 µM
TGI [46]: > 100 µM
TGI [47]: > 100 µM
TGI [48]: > 100 µM
TGI [49]: > 100 µM
TGI [50]: > 100 µM
TGI [51]: > 100 µM
TGI [52]: > 100 µM
TGI [53]: > 100 µM
TGI [54]: > 100 µM
TGI [55]: > 100 µM
TGI [56]: > 100 µM
TGI [57]: > 100 µM
